According to patent US20200289522A1 (Shionogi & Co., Ltd., priority 2019, published 2020):
Where two headings read alike, the source gives them in different places.

Experiments:
[1] = Plasma concentration after oral administration of prodrug Compound II-6 to rats under non-fasting conditions; type: in vivo
Excerpt: FIGS. 1 and 2 show a result of measuring the plasma concentration of Compound III and
Compound II-6, respectively, after oral administration of prodrug Compound II-6 to rats under non-fasting conditions.

type B influenza virus = type: in vivo, human; conditions: for median time to improvement of influenza symptoms: BXM single dose 40/80 mg, oseltamivir 75 mg twice daily for 5 days
influenza virus = type: in vivo, human

## COC(=O)OCOc1c2n(ccc1=O)N([C@@H]1c3ccccc3SCc3c1ccc(F)c3F)[C@@H]1COCCN1C2=O [II-6, Baloxavir marboxil]
[1]; non-fasting, oral II-6 0.3, 1, 3 and 10 mg/kg, all time points 0.25 h to 24 h, below limit of quantification
  concentration of Compound II-6 in plasma: < 0.500 ng/mL
[1]; oral administration
  conversion of prodrug to Compound III in vivo after administration: metabolized promptly to Compound III

## CCOC(=O)C1=C[C@@H](OC(CC)CC)[C@H](NC(C)=O)[C@@H](N)C1 [oseltamivir, reference compound]
Type B influenza virus; patients infected with type B influenza virus
  median time to improvement of influenza symptoms: 101.6 h

## Baloxavir marboxil [II-6]
Influenza virus; BXM 40 or 80 mg single oral dose
  primary endpoint (time to improvement of influenza symptoms) compared with placebo: statistically significant improvement
Influenza virus; by day 2, vs placebo and oseltamivir
  change from baseline in an influenza virus titer [log 10(TCID50/mL)] by time: statistically significantly superior to placebo and oseltamivir
Influenza virus; difference of medians, generalized Wilcoxon test p-value <0.0001
  Difference between BXM and placebo in Time to Improvement of Influenza Symptoms: −29.1
Influenza virus; median, BXM 40/80 mg single oral dose by body weight, N = 385, ITTI population
  Time to Improvement of Influenza Symptoms: 73.2
Influenza virus; vs placebo
  incidence of influenza-related complication: bronchitis: statistically signicantly superior to placebo
  incidence of influenza-related complication: sinusitis: statistically signicantly superior to placebo
Influenza virus; vs placebo and oseltamivir
  time to cessation of viral shedding by a virus titer: statistically significantly superior to placebo and oseltamivir
Influenza virus; vs placebo, Fisher's exact test
  incidence of influenza-related complications, any complications: statistically significantly superior to placebo
Type B influenza virus; […]
  median time to improvement of influenza symptoms: 74.6 h
Type B influenza virus; […], by day 2, vs placebo and oseltamivir
  change from baseline in an influenza virus titer [log 10(TCID50/mL)] by time, type B virus: statistically significantly superior to placebo and oseltamivir
Type B influenza virus; type B influenza virus, generalized Wilcoxon test p-value=0.0138
  median difference in time to improvement of influenza symptoms, BXM vs placebo: -26.0 h
Type B influenza virus; type B influenza virus, generalized Wilcoxon test p-value=0.0251
  median difference in time to improvement of influenza symptoms, BXM vs oseltamivir: -27.1 h
